Test system: glaucomatous eyes
Experiment: Intraocular pressure in TGF-β-induced glaucoma model (rebound tonometer)
Format: in vivo, Sprague Dawley rats
Details: rat, 15 mg/kg daily s.c. from day 14
From the text: Raised IOP was induced by twice weekly intracameral injections of the inflammatory cytokine TGF-β over the entire time period of 28 days. This induced scarring of the trabecular meshwork (TM) drainage portals by day 14 with associated raised IOP. Daily subcutaneous dextran sulfate/saline treatments commenced at day 14.
Glaucoma was induced in adult male Sprague Dawley rats by repeat twice weekly intracameral (IC) injections of transforming growth factor-β (TGF-β) to increase intraocular pressure (IOP). Sustained increases in IOP (after two weeks) leads to death of retinal ganglion cells (30-40%). Dextran sulfate (Tikomed AB, Sweden, WO 2016/076780) was administered at 15 mg/kg by daily subcutaneous injection from […] to assess RGC protection compared to controls.
Group 1 n=12 rats; 24 eyes IOP+IC TGF-β (twice weekly for 28 days) between day 0 and day 28+ daily subcutaneous administration of dextran sulfate from day 14 to day 28.
Sixteen 8 to 10 week-old male 175-200 g Sprague Dawley rats (Charles River, Kent, UK), housed with free access to food and water under a 12 h dark/light cycle, were used for these experiments. Surgery was performed at the Biomedical Services Unit at the University of Birmingham in accordance with the Home Office guidelines set out in the 1986 Animal Act (UK) and the ARVO Statement for the Use of Animals in Ophthalmic and Vision Research. […] The post-operative welfare of all rats was monitored closely. […]
Using an iCare Tonolab rebound tonometer (Icare, Helsinki, Finland), IOP was recorded bi-weekly between 9-11 am for the duration of each experiment to avoid confounding the readings with circadian variability. Immediately after induction of anesthesia with 5% isoflurane, six rebound measurements were taken with the tonometer from the central cornea on each measurement occasion to give an overall average IOP measurement (mmHg) and all graphical data points represent the mean±SEM of 3 readings (of 6 rebounds each) taken sequentially to ensure accurate measurements.

dextran sulfate
IOP compared to controls (IC TGF-β twice weekly, day 24, vs saline): significantly lower (P<0.001) and normalized
IOP compared to control group (IC TGF-β twice weekly, day 28 (end of experiment), vs saline): remained significantly lower
time of treatment after which elevated IOP started to reduce (IC TGF-β): 7 days

Source: patent US11291684B2, “Treatment of glaucoma” (TX MEDIC AB, priority 2017, dated 2022)
